Experimental data taken from US12398124B2, “Pyrrolobenzodiazepine dimer prodrug and ligand-linker conjugate compound of the same” (priority 2017, dated 2025).
Read-outs that look alike come from different tables or passages of the source. Where a SMILES comes first, the peptide text is derived from it. [ ]: non-standard residue; d: D form. Dolaproine = CO[C@@H]([C@@H]1CCCN1)[C@@H](C)C(=O)O; Dil = CC[C@H](C)[C@H](NC)[C@@H](CC(=O)O)OC; NMeV = CN[C@H](C(=O)O)C(C)C

How the values were obtained:
Test in all cases: Cytotoxicity in vitro (cell proliferation inhibition, SRB dye)
Format in all cases: cell-based, human
[1] = system: MCF-7 (HER2 negative to normal); conditions: MCF7 breast cancer cells
Method: (§1) The cell proliferation inhibitory activity of the drug and ADCs presented in the following Table 2 on cancer cell lines was measured. As the cancer cell lines, commercially available human breast cancer cell lines MCF-7 (HER2 negative to normal), SK-BR3 (HER2 positive), and JIMT-1 (HER2 positive) were used. MMAF-OMe was used as the drug and the ADCs in Table 1 were used as the ADC. Each of the cancer cell lines was seeded in a 96-well plate by from 5,000 to 13,000 per well for the 72 hour treatment group and from 1,500 to 3,000 per well for the 168 hour treatment group, incubated for 24 hours, and then treated with antibodies and ADCs at a concentration of from 0.0051 to 33.33 nM or from 0.0015 to 10.0 nM (three times serial dilutions) and drugs at a concentration of from 0.023 to 50 nM (three times serial dilutions). After 72/168 hours, the number of living cells was quantified using SRB (Sulforhodamine B) dye.

[2] = system: JIMT-1 (HER2 positive); conditions: JIMT-1 breast cancer cells
Method: as §1

[3] = system: SK-BR3 (HER2 positive); conditions: SK-BR3 breast cancer cells
Method: as §1

SMILES: CC[C@H](C)[C@@H]([C@@H](CC(=O)N1CCC[C@H]1[C@H](OC)[C@@H](C)C(=O)N[C@@H](Cc1ccccc1)C(=O)OC)OC)N(C)C(=O)[C@@H](NC(=O)[C@@H](NC)C(C)C)C(C)C [MMAF-OMe] (H-[NMeV]V[Dil][Dolaproine]F-OMe)
- CC50 ([1]; 72 hr treatment, read-out: CC50 (nM) MCF7 72 hr): 0.84 nM
- CC50 ([1]; 168 hr treatment, read-out: CC50 (nM) MCF7 168 hr): 0.19 nM
- CC50 ([2]; 72 hr treatment, read-out: CC50 (nM) JIMT-1 72 hr): 0.14 nM
- CC50 ([2]; 168 hr treatment, read-out: CC50 (nM) JIMT-1 168 hr): 0.06 nM
- CC50 ([3]; 72 hr treatment, read-out: CC50 (nM) SK-BR3 72 hr): 0.14 nM
- CC50 ([3]; 168 hr treatment, read-out: CC50 (nM) SK-BR3 168 hr): 0.06 nM
